Measured values taken from patent US7829528B2, “Compositions and methods for treating STAT-6 associated diseases or conditions” (The Rockefeller University, priority 2004, dated 2010).
Where no end group is shown, it is not given here.

Tests used:
IFN-gamma = assay: Ovalbumin-induced IFN-gamma production by splenocytes from ovalbumin-sensitized mice (ELISA); format: cell-based, BALB/c mice; details: ovalbumin 100 μg/mL + 100 μM peptide added daily, four days; ovalbumin alone 567.9 ± 93.1
Procedure: Splenocytes from ovalbumin-sensitized mice were cultured for four days with no antigen, with ovalbumin alone, or with ovalbumin plus the STAT-6-IP or a STAT-6 Tyr-641 mutant (STAT-6-CP; Tyr-Ala-Arg-Ala-Ala-Ala-Arg-Gln-Ala-Arg-Ala-Gly-Arg-Gly-Phe-Val-Ser-Thr-Thr; SEQ ID NO:8). The STAT-6-IP and STAT-6-CP were added to splenocyte cultures daily. Treatment with the STAT-6-IP, but not the STAT-6-CP, reduced the supernatant levels of both IL-4 and IL-13 (Table 3).
(§1) BALB/c mice were sensitized systemically by two weekly i.p. injections of 0.025% ovalbumin mixed with 4 mg/mL Al(OH)3. One week after the second sensitization, mice were sacrificed and spleens harvested. A single cell suspension of splenocytes (5×10^6 cells/mL) was cultured in RPMI-1640 medium containing 10% heat-inactivated fetal bovine serum and 2 mM L-glutamine, 50 μM 2-mercaptoethanol, 100 U/mL penicillin, and 100 μg/mL streptomycin sulfate. Splenocytes were cultured for four days in the presence or absence of 100 μg/mL ovalbumin, either alone or with 100 μM STAT-6-IP or STAT-6-CP, which were added daily. After four days, culture supernatants were harvested to quantify cytokine production by ELISA. […] Cytokine expression was monitored by flow cytometry and analyzed using CELLQUEST™ software (Becton Dickinson). […]

IL-13 = IL-13 in the BAL fluid (ELISA); format: in vivo, BALB/c mice; details: 150 μg peptide prior to each ovalbumin challenge; ovalbumin control 84.95, normal saline 55.67
Procedure: (§2) Six-to-eight week-old male BALB/c mice were obtained from Harlan-Sprague Dawley (Indianapolis, Ind.) and were housed in a conventional animal facility. For each experimental condition, a minimum of 6-8 animals was used. Awake animals were sensitized five days per week for each of two weeks by instillation in each nostril of 5 μL 1% ovalbumin in PBS. Alternatively, animals were sensitized by two weekly systemic, i.p. injections of 0.025% ovalbumin mixed with 4 mg/mL Al(OH)3. Following two weeks rest, animals were challenged for five days by intranasal instillation of 1% ovalbumin. Animals treated with peptides received the STAT-6-IP (15, 50, or 150 μg) or STAT-6-CP (50 or 150 μg) in 10 μL PBS 30 minutes prior to each ovalbumin challenge. Twenty-four hours after the last ovalbumin challenge, mice were deeply anaesthetized with xylazine and sodium pentobarbital and paralyzed with pancuronium bromide. The tail vein was cannulated for drug administration and heart rate was monitored by EKG. […] Respiratory system resistance was measured. […] Methacholine was injected through the tail vein at dose of 10, 20, 40, 80, 160, 320 μg/kg and the maximal resistance and elastance were recorded. […] Six fields were counted, each encompassing 100 cells per slide, and means obtained.

[1] = tested on: ovalbumin-sensitized mice; assay: Allergen-induced accumulation of granulocytes in bronchoalveolar lavage (BAL) fluid; format: in vivo, BALB/c mice
Source text: In the combined allergic rhinitis and asthma model, non-anaesthetized mice are locally sensitized with ovalbumin intranasally (i.n.), the primary route of allergen exposure in man (McCusker, et al. (2002) supra). Normal saline was used as a control. In both models sensitized mice produce ovalbumin-specific IgE and upon i.n. ovalbumin challenge, develop inflammation and eosinophilia in both the upper and lower airways as well as IL-13-dependent airway hyperresponsiveness (McCusker, et al. (2002) supra; Wang and McCusker (2005) Clin. Exp. Allergy 35(8):1104-11). Thus, in each model of allergic airway disease, the STAT-6-IP or control STAT-6-CP was given locally, i.n., to non-anaesthetized, ovalbumin-sensitized mice prior to each of five daily allergen challenges. Consistent with its ability to inhibit STAT-6-dependent activity in vitro, the STAT-6-IP inhibited allergen-induced accumulation of granulocytes in the lung, quantified in bronchoalveolar lavage (BAL) fluid, independent of the site of sensitization (Table 5).
as §2, with “Animals treated with peptides received the STAT-6-IP (15, 50, or 150 μg) or STAT-6-CP (50 or 150 μg) in 10 μL PBS 30 minutes prior to each ovalbumin challenge. Twenty-four hours after the last ovalbumin challenge, mice were deeply anaesthetized with xylazine and sodium pentobarbital and paralyzed with pancuronium bromide.” left out

[2] = tested on: CD4+ lymphocytes expressing IL-4; assay: Intracellular cytokine staining of CD4+ T cells producing IL-4 (flow cytometry); format: cell-based, BALB/c mice; details: ovalbumin + 100 μM peptide, ovalbumin alone 90.21 ± 8.02
Procedure: The levels of mRNA encoding IL-4, IL-13 and IFN-gamma were also evaluated by semiquantitative RT-PCR analysis. Ovalbumin-induced expression of both IL-4 and IL-13 mRNA was inhibited in splenocytes cultured with the STAT-6-IP and not the STAT-6-CP. […] The number of CD4+ T cells producing IL-4 was also quantified by intracellular cytokine staining. When splenocytes from ovalbumin-sensitized mice were cultured with ovalbumin, there was a significant increase in the number of CD4+ lymphocytes expressing IL-4 (Table 4). The increase in IL-4 expression was abrogated in splenocytes cultured with ovalbumin in the presence of the STAT-6-IP, while the STAT-6-CP had no effect.
as §1, with “Splenocytes were cultured for four days in the presence or absence of 100 μg/mL ovalbumin, either alone or with 100 μM STAT-6-IP or STAT-6-CP, which were added daily.” left out

[3] = tested on: ovalbumin-sensitized mice; assay: Airway hyperresponsiveness to methacholine (respiratory system resistance, FlexiVent); format: in vivo, BALB/c mice
Procedure: Six-to-eight week-old male BALB/c mice were obtained from Harlan-Sprague Dawley (Indianapolis, Ind.) and were housed in a conventional animal facility. For each experimental condition, a minimum of 6-8 animals was used. Awake animals were sensitized five days per week for each of two weeks by instillation in each nostril of 5 μL 1% ovalbumin in PBS. Alternatively, animals were sensitized by two weekly systemic, i.p. injections of 0.025% ovalbumin mixed with 4 mg/mL Al(OH)3. Following two weeks rest, animals were challenged for five days by intranasal instillation of 1% ovalbumin. Animals treated with peptides received the STAT-6-IP (15, 50, or 150 μg) or STAT-6-CP (50 or 150 μg) in 10 μL PBS 30 minutes prior to each ovalbumin challenge. Twenty-four hours after the last ovalbumin challenge, mice were deeply anaesthetized with xylazine and sodium pentobarbital and paralyzed with pancuronium bromide. The tail vein was cannulated for drug administration and heart rate was monitored by EKG. The trachea was exposed, a cannula inserted and secured with silk ties and then attached to a computer-controlled small-animal ventilator (FlexiVent; SCIREQ, Montreal, Quebec). Mice were ventilated quasi-sinusoidally with a tidal volume of 8 mL/kg and respiratory rate of 150 breaths/minute. Respiratory system resistance was measured. Airway hyperresponsiveness was by low dose methacholine. Methacholine was injected through the tail vein at dose of 10, 20, 40, 80, 160, 320 μg/kg and the maximal resistance and elastance were recorded. Afterward, the trachea was isolated and a 22-gauge stainless steel catheter was inserted into the proximal trachea and secured with 4-0 silk suture. The lungs were lavaged using 0.5 mL of ice cold 0.9% NaCl. The bronchoalveolar lavage (BAL) fluid was centrifuged to remove intact cells and the supernatant stored at −20° C. for IL-13 analysis by ELISA. […] Six fields were counted, each encompassing 100 cells per slide, and means obtained.

Sequence: YARAAARQARAGRGFVSTT [STAT-6-CP, STAT-6 Tyr-641 mutant, control peptide]
- IFN-gamma (pg/mL ± SEM), culture supernatant (IFN-gamma): 513.6 ± 118.3 pg/mL
- IL-13, pg/mL (±SEM), BAL fluid (IL-13): 75.75 (±5.60) pg/mL
- Granulocytes/100 counted from BAL (±SEM) ([1]; dose response, 150 μg peptide, ovalbumin control 22.33, normal saline 5.00): 21.42 ± 1.56 Granulocytes/100 counted
- Granulocytes/100 counted from BAL (±SEM) ([1]; i.n. ovalbumin sensitization, 50 microgram peptide i.n. prior to each ovalbumin challenge, ovalbumin control 26.73): 22.27 (±0.60) Granulocytes/100 counted
- Granulocytes/100 counted from BAL (±SEM) ([1]; i.p. ovalbumin sensitization, 50 microgram peptide i.n. prior to each ovalbumin challenge, ovalbumin control 37.57): 34.75 (±0.68) Granulocytes/100 counted
- Percentage of IL4 positive cells ± SEM [2]: 92.13 ± 5.62 Percentage
- Response Rmax (cm H2O × s/mL ± SEM) ([3]; dose response, 150 μg peptide, ovalbumin control 2.02, normal saline 1.41): 2.53 (±0.31) cm H2O × s/mL
- Response Rmax (cm H2O × s/mL ± SEM) ([3]; i.n. ovalbumin sensitization, 50 microgram peptide, ovalbumin control 1.92, normal saline 1.19): 1.80 ± 0.07 cm H2O × s/mL
- Response Rmax (cm H2O × s/mL ± SEM) ([3]; i.p. ovalbumin sensitization, 50 microgram peptide, ovalbumin control 1.87, normal saline 1.19): 1.85 ± 0.06 cm H2O × s/mL
